The target in test [1] is T1, mouse CD38 (Mus musculus, UniProt P56528).
T1 sequence (P56528 1-304): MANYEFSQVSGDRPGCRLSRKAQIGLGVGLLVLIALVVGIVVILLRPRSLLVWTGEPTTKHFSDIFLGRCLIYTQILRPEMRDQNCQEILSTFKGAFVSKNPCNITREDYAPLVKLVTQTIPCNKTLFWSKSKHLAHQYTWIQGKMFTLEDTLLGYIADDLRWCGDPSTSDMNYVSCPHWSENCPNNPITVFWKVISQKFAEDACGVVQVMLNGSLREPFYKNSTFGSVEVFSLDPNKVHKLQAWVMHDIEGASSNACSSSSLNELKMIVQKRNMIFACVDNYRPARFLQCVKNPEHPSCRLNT
Nature of the test: mouse recombinant CD38 enzyme assay (hydrolysis of NAD+). It counts as biochemical. Particulars: read-out: mCD38 BioChem IC50. The method in brief: (§1)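 Steps: compound and recombinant enzyme are mixed, NAD+ is added, and the reaction runs 60 min at room temperature. An ADH/ethanol mix containing a CD38 inhibitor halts hydrolysis and forms NADH. After NaOH quench, resazurin plus diaphorase produce fluorescent resorufin, read at 540/590 nm.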

For test [2], the target named is T2, human CD38 (Homo sapiens, UniProt P28907).
T2 sequence (P28907 1-300): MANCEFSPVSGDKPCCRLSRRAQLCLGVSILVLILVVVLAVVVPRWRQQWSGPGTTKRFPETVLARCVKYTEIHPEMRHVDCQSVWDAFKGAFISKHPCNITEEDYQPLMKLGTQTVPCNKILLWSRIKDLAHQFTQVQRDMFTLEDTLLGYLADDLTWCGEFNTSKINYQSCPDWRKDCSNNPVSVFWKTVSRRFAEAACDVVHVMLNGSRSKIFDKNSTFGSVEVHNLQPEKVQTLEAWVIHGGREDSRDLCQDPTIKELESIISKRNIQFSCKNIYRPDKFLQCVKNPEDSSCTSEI
In words: human recombinant CD38 enzyme assay (hydrolysis of NAD+). As to conditions: human recombinant CD38, 0.4 nM enzyme, 62.5 μM NAD+; read-out: hCD38 BioChem IC50. It counts as biochemical. The method in brief: as §1

Test [3] deals with T3, endogenous CD38 in HL60 cells (Homo sapiens, UniProt P28907).
T3 construct: endogenous in cells; host or cells: HL60 (leukemic cells, treated with all-trans retinoic acid)
T3 sequence (P28907 1-300): T2 sequence (P28907 1-300)
Nature of the test: cellular CD38 assay in HL60 cells (cellular NAD levels). As to conditions: all-trans retinoic acid, 24 hours, read-out: hCD38 HL60 ATRA NAD Cell Diaphorase IC50. The format is cell-based. The method in brief:
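Endogenous CD38 inhibition is inferred from NAD levels in HL60 cells after 24 h compound exposure at 20000 cells per well. A lytic cycling readout (0.2 U/mL diaphorase, 0.8 U/mL alcohol dehydrogenase, resazurin, FMN, ethanol, 0.2% Triton X-100, Tris/EDTA pH 8.4) ran 60 min at ambient temperature. Resorufin fluorescence was read at 540/590 nm.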

The IC50 is the concentration at which inhibition is half-maximal.

Take `CO[C@H]1CC[C@H](NC(=O)c2nc(C3CC3)cc(-n3ccnc3)n2)CC1` [Compound 204, 4-cyclopropyl-6-(1H-imidazol-1-yl)-N-((1r,4r)-4-methoxycyclohexyl)pyrimidine-2-carboxamide]: the IC50 in test [1] is 8.8 nM; in test [2], 123 nM; in test [3] it was 8570 nM.
The corresponding values for `Cc1ccc(-n2ccnc2)nc1C(=O)Nc1cccnc1` [Compound 26, 6-(1H-imidazol-1-yl)-3-methyl-N-(pyridin-3-yl)picolinamide] are 7 nM, 16 nM and 629 nM.
On the same counts, the results for `Cn1cncc1-c1ccnc(C(=O)N[C@H]2CC[C@H](C)CC2)n1` [Compound 149, 4-(1-methyl-1H-imidazol-5-yl)-N-((1r,4r)-4-methylcyclohexyl)pyrimidine-2-carboxamide] are 13 nM, 43 nM and 1380 nM.
Take `CC(C)c1cc(C(=O)Nc2ccc(C(F)(F)F)nc2)nc(-n2ccnc2)n1` [Compound 170, 2-(1H-imidazol-1-yl)-6-isopropyl-N-(6-(trifluoromethyl)pyridin-3-yl)pyrimidine-4-carboxamide]: the values for the IC50 in test [1], in test [2] and in test [3] were 32 nM, 47 nM and 4860 nM, respectively.
The corresponding values for `CO[C@H]1C[C@H](NC(=O)c2cccc(-n3ccnc3)n2)C1` [Compound 23, 6-(1H-imidazol-1-yl)-N-(3-methoxycyclobutyl)picolinamide] are 110 nM, 614 nM and 3890 nM.
The corresponding values for `CO[C@H]1CC[C@H](NC(=O)c2cc(C)cc(-n3ccnc3)n2)CC1` [Compound 96, 6-(1H-imidazol-1-yl)-N-(4-methoxycyclohexyl)-4-methylpicolinamide] are 3 nM, 23 nM and 1630 nM.
The corresponding values for `O=C(N[C@H]1C[C@H](Oc2ccccc2)C1)c1nccc(-n2ccnc2)n1` [Compound 219, 4-(1H-imidazol-1-yl)-N-((1r,3r)-3-phenoxycyclobutyl)pyrimidine-2-carboxamide] are 99 nM, 361 nM and 10800 nM.
Take `Cn1cncc1-c1nc(C(=O)N[C@H]2CC[C@H](O)CC2)cc(C2CCC(F)(F)CC2)n1` [Compound 288, 6-(4,4-difluorocyclohexyl)-N-((1r,4r)-4-hydroxycyclohexyl)-2-(1-methyl-1H-imidazol-5-yl)pyrimidine-4-carboxamide]: the results for the IC50 in test [1], in test [2] and in test [3] were 1 nM, 10.3 nM and 2580 nM, respectively.
On the same counts, the results for `COCCOc1cc(C(=O)Nc2ccc(C(F)(F)F)nc2)nc(-n2ccnc2)c1` [Compound 245, 6-(1H-imidazol-1-yl)-4-(2-methoxyethoxy)-N-(6-(trifluoromethyl)pyridin-3-yl)picolinamide] are 1 nM, 2.8 nM and 749 nM.
The corresponding values for `COc1cc(-c2cncn2C)nc(C(=O)Nc2ccc(C(F)(F)F)nc2)n1` [Compound 234, 4-methoxy-6-(1-methyl-1H-imidazol-5-yl)-N-(6-(trifluoromethyl)pyridin-3-yl)pyrimidine-2-carboxamide] are 1.4 nM, 2.4 nM and 557 nM.
For `CC(C)(O)c1ccc(NC(=O)c2nccc(-n3ccnc3)n2)cc1` [Compound 357, N-(4-(2-hydroxypropan-2-yl)phenyl)-4-(1H-imidazol-1-yl)pyrimidine-2-carboxamide], the IC50 worked out at 10.2 nM in test [1], 5.7 nM in test [2] and 940 nM in test [3].
The corresponding values for `Cn1cncc1-c1ccnc(C(=O)N[C@H]2C[C@H](c3ccc(C(F)(F)F)nc3)C2)n1` [Compound 273, 4-(1-methyl-1H-imidazol-5-yl)-N-((1r,3r)-3-(6-(trifluoromethyl)pyridin-3-yl)cyclobutyl)pyrimidine-2-carboxamide] are 53.7 nM, 71.9 nM and 2470 nM.
On the same counts, the results for `O=C(N[C@H]1C[C@H](c2ccccc2)C1)c1nccc(-n2ccnc2)n1` [Compound 211, 4-(1H-imidazol-1-yl)-N-((1r,3r)-3-phenylcyclobutyl)pyrimidine-2-carboxamide] are 29.8 nM, 46.2 nM and 2010 nM.
On the same counts, the results for `O=C(Nc1ccc(F)cc1F)c1cccc(-n2ccnc2)n1` [Compound 24, N-(2,4-difluorophenyl)-6-(1H-imidazol-1-yl)picolinamide] are 45 nM, 104 nM and 1660 nM.
Regarding `CO[C@H]1CC[C@H](NC(=O)c2nc(-c3cncn3C)cc(C3CC3)n2)CC1` [Compound 203, 4-cyclopropyl-N-((1r,4r)-4-methoxycyclohexyl)-6-(1-methyl-1H-imidazol-5-yl)pyrimidine-2-carboxamide], the figures for the IC50 in test [1], in test [2] and in test [3] were 12.1 nM, 161 nM and 7870 nM, respectively.
The corresponding values for `O=C(Nc1cccnc1)c1cccc(-c2cncs2)n1` [Compound 11, N-(pyridin-3-yl)-6-(thiazol-5-yl)picolinamide] are 741 nM, 2110 nM and 8050 nM.
On the same counts, the results for `Cn1cncc1-c1nc(C(=O)N[C@H]2C[C@H](C(C)(C)O)C2)cc(C2CCOCC2)n1` [Compound 283, N-((1r,3r)-3-(2-hydroxypropan-2-yl)cyclobutyl)-2-(1-methyl-1H-imidazol-5-yl)-6-(tetrahydro-2H-pyran-4-yl)pyrimidine-4-carboxamide] are 4.3 nM, 18.4 nM and 5690 nM.
With `Cn1cncc1-c1ccnc(C(=O)Nc2ccc(OC(F)F)nc2)n1` [Compound 276, N-(6-(difluoromethoxy)pyridin-3-yl)-4-(1-methyl-1H-imidazol-5-yl)pyrimidine-2-carboxamide], the values for the IC50 in test [1], in test [2] and in test [3] were 4.4 nM, 1.4 nM and 209 nM, respectively.
On the same counts, the results for `COc1cc(C(=O)N[C@H]2CC[C@H](C)CC2)nc(-n2ccnc2)c1` [Compound 166, 6-(1H-imidazol-1-yl)-4-methoxy-N-((1r,4r)-4-methylcyclohexyl)picolinamide] are 2 nM, 21 nM and 2240 nM.
On the same counts, the results for `Cn1cncc1-c1nc(C(=O)N[C@H]2CC[C@H](OC(F)F)CC2)cc(C2(C)COC2)n1` [Compound 311, N-((1r,4r)-4-(difluoromethoxy)cyclohexyl)-2-(1-methyl-1H-imidazol-5-yl)-6-(3-methyloxetan-3-yl)pyrimidine-4-carboxamide] are 3.8 nM, 13.5 nM and 2150 nM.
The corresponding values for `CO[C@H]1CC[C@H](NC(=O)c2nc(-c3cncn3C)cnc2N)CC1` [Compound 318, 3-amino-N-((1r,4r)-4-methoxycyclohexyl)-6-(1-methyl-1H-imidazol-5-yl)pyrazine-2-carboxamide] are 13.4 nM, 18.5 nM and 1920 nM.
Regarding `O=C(N[C@H]1CC[C@@H](O)CC1)c1cccc(-n2ccnc2)n1` [Compound 31, N-(4-hydroxycyclohexyl)-6-(1H-imidazol-1-yl)picolinamide], the IC50 in test [1] was 205 nM; in test [2] it was 479 nM; in test [3], 15700 nM.

Source of the values: patent US20230116972A1, “CD38 MODULATORS AND METHODS OF USE THEREOF” (Cytokinetics, Inc., priority 2021, published 2023).
